Several values for one entry are separate records, joined by “and”; a condition that tells them apart may be missing. Equal entries are not always repeated.

This assay has as its system PICK1-WT and PICK1-KO mice, SNI model. As to the kind of experiment: SNI model, von Frey, PICK1-WT and PICK1-KO mice.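 As to von Frey paw withdrawal threshold, individual animals (Fig 5F): time points given in hours with 0 hours as the comparison point.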 Format: in vivo, mouse. The note with it: for effect on mechanical hypersensitivity (PWT): s.c. As for the experimental part:
solution (0.05 mg/kg) injected s.c. 30 min before surgery (10 μL/g). For surgery, mice were anaesthetised with ketamine (100 mg/kg, i.p.) and xylazine (10 mg/kg, i.p.) (volume 10 µL/g) with 100 μL of 1% xylocaine solution infiltrated at the site of the incision. The distal trifurcation of the sciatic nerve was identified, and the tibial and common peroneal branches were ligated with polypropylene nonabsorbable 6-0 sutures (Ethicon) and 1 mm was cut out, leaving the sural branch intact. The wound was closed with sutures, and the animals were allowed to recover and returned to their cages. Two subcutaneous injections of buprenorphine (0.05 mg/kg) were performed with an 8 to 12 hours delay decreasing pain due to the surgery […]
The remaining SNI pain experiments were performed in-house using the following procedure.
SNI surgery was performed on the left hindleg of C57BL/6J male and female mice (Janvier, France) under 2% isoflurane anaesthesia. Skin on the lateral surface was incised between hip and knee followed by lengthwise division of the biceps femoris muscle leading to exposure of the three branches of the sciatic nerve. Sural branch was left intact, while the peroneal and tibial branches were ligated with a single surgical knot and axotomized distally of the ligation.
Wounds were closed with surgical glue or medical clips and animals were monitored daily for signs of stress or discomfort, but in all cases recovered uneventfully. […]
The skin wound was closed with two medical clips (Michel Suture Clips, 7.5x1.75 mm, Angthos, 12040-01). Post-surgical analgesia included s.c. injection of 5 mg/kg carprofen (Carprosan vet, 50 mg/mL mixed 1:25 in sterile ddH2O, Dechra, Le Vet Beheer B.V., Netherlands, Batch: 050520) right after surgery and the […]
following day. […]
The test battery of the CIBP model was carried out 45 or 90 min after morphine and mPD5 administration respectively to accommodate the peak efficacy […]
Mechanically evoked pain (von Frey test).
Unless otherwise specified, von Frey occurred as described in the following. Animals were habituated to the experimental room for a minimum of 60 min before initiation of the experiment. Mechanical paw withdrawal threshold (PWT) was determined by von Frey measurements of both hind paws. Von Frey filaments ranging from 0.04 to 2 g (g = gram- […]
Filaments in ascending order were applied to the frontocentral plantar surface of the hind paws.
Mice were placed in PVC plastic boxes (11.5 cm x 14 cm) on a wire mesh and allowed minimum 20 min habituation prior of experiment initiation. Each von Frey hair was applied five times with adequate resting periods between each application and number of withdrawals recorded. The withdrawal threshold was determined as the von Frey filament eliciting at least three positive trials out of the five applications in two consecutive filaments. A positive trial was defined as sudden paw withdrawal, flinching and/or paw licking induced by the filament.
For the CIBP model, two habituation sessions were performed on separated days with mice placed in the von Frey equipment for 1-1.5 hours in the presence of the experimenter on day one and random von Frey pocking with the 0.6 g filament on day two. Von Frey monofilaments (North Coast Touch Test, North Coast Medical, Inc.) with target forces of 0.04g, 0.07g, 0.16g, […]
down method” (PWT=10Xf+kδ) starting with the 0.6 g filament. Positive response was defined as; withdrawal, shaking or grooming of paw following a 2-3 second stimulation. In case, of unclear response, stimulus was repeated after 10-15 seconds.
For the STZ model, the mechanical threshold response of the injected mice was measured with […]
injection of test compounds on day 14, mechanical threshold was measured at 1 hour, 2 hours, 4 hours and 6 hours and again on day 15. […]
Thermally evoked pain (Hargreaves test).
A baseline Hargreaves test was performed on day 0 before inflammatory pain was induced as described in section 2.13. In the Hargreaves test, the mouse was placed in a container on a glass […]

With `CCCCCCCCCCCCCC(=O)N(CCOCCOCCC(=O)N[C@@H](Cc1c[nH]cn1)C(=O)N[C@@H](Cc1c[nH]c2ccccc12)C(=O)N[C@@H](CC(C)C)C(=O)N[C@@H](CCCCN)C(=O)N[C@H](C(=O)O)C(C)C)CCOCCOCCC(=O)N[C@@H](Cc1c[nH]cn1)C(=O)N[C@@H](Cc1c[nH]c2ccccc12)C(=O)N[C@@H](CC(C)C)C(=O)N[C@@H](CCCCN)C(=O)N[C@H](C(=O)O)C(C)C` [mPD5, myristoyl-NPEG4-(HWLKV)2], the “effect on mechanical hypersensitivity (PWT)” value was “no effect on mechanical hypersensitivity” (PICK1-KO mice following SNI surgery) and “significantly reduced” (WT littermates following SNI surgery). In addition, the “von Frey paw withdrawal threshold, individual animals (Fig 5F)” value (“von Frey paw withdrawal threshold” below) was 1.4 (4×) and 2 (2×) (PICK1-KO, CONTRA, BL); 1 (3×) and 1.4 (3×) (PICK1-KO, CONTRA, time 0); 1.4 (3×) and 0.6 and 2 and 1 (PICK1-KO, CONTRA, time 1); 1 and 1.4 (3×) and 2 (2×) (PICK1-KO, CONTRA, time 5); 1.4 (4×) and 2 and 1 (PICK1-KO, injured side, BL); 0.6 and 0.07 and 0.4 (2×) and 0.16 (2×) (PICK1-KO, injured side, time 0). Besides, the “von Frey paw withdrawal threshold” value reads like this: (PICK1-KO, injured side, time 1) 0.4 (2×) and 0.16 (3×) and 0.07; (PICK1-KO, injured side, time 5) 0.16 (2×) and 0.07 (3×) and 0.4; (PICK1-WT, CONTRA, BL) 1 (2×) and 1.4 (4×); (PICK1-WT, CONTRA, time 0) 1.4 (4×) and 1 and 2; (PICK1-WT, CONTRA, time 1) 1.4 (3×) and 1 (2×) and 2; (PICK1-WT, CONTRA, time 5) 1.4. For the same compound, the “von Frey paw withdrawal threshold” value by setting is: (PICK1-WT, injured side, BL) 1 (2×) and 1.4 (3×) and 2; (PICK1-WT, injured side, time 0) 0.07 (2×) and 0.16 (3×) and 0.4; (PICK1-WT, injured side, time 1) 1.4 (4×) and 1 (2×); (PICK1-WT, injured side, time 5) 0.6 (2×) and 0.4 (3×) and 1.

(Values after paper PMC11530130, “Peripherally restricted PICK1 inhibitor mPD5 ameliorates pain behaviors in murine inflammatory and neuropathic pain models” (JCI Insight, 2024).)
